Measured values from patent US20220062165A1, “COMPOSITIONS AND METHODS FOR INTRANASAL DELIVERY OF PREGNENOLONE” (M et P Pharma AG, priority 2018, published 2022).
“Also recorded” adds a separate entry of the source.

Columns and labels:
Set-up in all cases: species or system rat
[1] = tested on: extracellular acetylcholine levels in the amygdala; assay: In vivo microdialysis after intranasal administration in both nostrils, amygdala; conditions: 11.2 mg/mL, 5 μl each in both nostrils; n=4
Procedure: (§1) Acetylcholine concentration values are presented as % of baseline with six baseline samples taken as 100 (mean+SE). Pregnenolone was administrated intranasally at a volume of 5 μl each in both nostrils, at the 0 minute time point. Time is presented in the x-axis and mean and standard error of acetylcholine concentration (expressed as % of baseline) are presented in the y-axis. Filled black circles represent the vehicle, unfilled white circles represent the 5.6 mg/mL pregnenolone dose and the triangle represents the 11.2 mg/mL pregnenolone dose.
(§2) The semipermeable membrane allows molecules smaller than 6 KDa to pass through. The length of the active membrane is 2 mm for the frontal cortex and amygdala, and 4 mm for the hippocampus.
(§3) Microdialysis. Prior the microdialysis process, the animals were anesthetized with Urethane intraperitoneal injection. (1.25 gram/kilogram, Sigma Aldrich). To allow fluid supply (perfusion liquid) (Ringer's solution 0.2 milliliter every 20 minutes) without physical contact with the animal, a catheter was placed into the intraperitoneal cavity. The animal was placed in an acrylic box (45×25×22 centimeter), and the body temperature was monitored and held stable at 36.5±0.5 degrees Celsius by atemperature controller (CMA/150) and a heating pad. […]

[2] = tested on: extracellular acetylcholine levels in the hippocampus; assay: In vivo microdialysis after intranasal administration in both nostrils, hippocampus; conditions: 5 μl each in both nostrils
Procedure: as §1, §2, §3

[3] = tested on: extracellular acetylcholine levels in the frontal cortex; assay: In vivo microdialysis after intranasal administration in both nostrils, frontal cortex; conditions: 5 μl each in both nostrils
Procedure: as §1, §2, §3

[4] = tested on: extracellular acetylcholine levels in the amygdala; assay: In vivo microdialysis after lateralized intranasal administration (one nostril), amygdala; conditions: 5 μl of 11.2 mg/mL gel in one nostril, vehicle in the other; anesthetized rats; n=10
Excerpt: Subjects. A total number of 10 adult male Wistar rats 3-4 months of age and weighting between 400 and 500 grams, at the time of surgery, were obtained from the local animal facility (Tierversuchsanlage, University of Dusseldorf, Germany). They were grouped 4 per cage (Makrolon cage, type IV, 60.0×20.0×38.0 centimeter), and separated into individual cases after the surgery. They were housed under a reversed light-dark cycle (light off from 7 after midnight (AM) to 7 post meridiem (PM)), with free access to food and water. […] After two weeks of adaptation, animals underwent microdialysis as described below. All experiments were carried out in accordance with the European Communities Council Directive (86/609/EEC) on animal welfare, and approved by the German Animal Protection Law Authorities—LANUV Nordrhein-Westfalen.
Surgery. Rats underwent implantation of microdialysis probes into specific brain areas. They were anesthetized with a mixture of ketamine hydrochloride (90.0 milligram/kilogram (mg/kg); Pharmacia & Upjohn) and xylazine hydrochloride (8.0 mg/kg; Bayer) and placed in a stereotaxic frame (David Kopf Instruments). […]
Microdialysis. […] The animal was placed in an acrylic box (45×25×22 centimeter), and the body temperature was monitored and held stable at 36.5±0.5 degrees Celsius by atemperature controller (CMA/150) and a heating pad. […]

CC(=O)[C@H]1CC[C@H]2[C@@H]3CC=C4C[C@@H](O)CC[C@]4(C)[C@H]3CC[C@]12C [pregnenolone]
effect on acetylcholine (ACh) release in the amygdala [1]: induced an increase in acetylcholine release in the amygdala
effect on acetylcholine release in the hippocampus ([2]; 5.6 mg/mL, n=7): had no effect
effect on acetylcholine release in the hippocampus ([2]; 11.2 mg/mL, n=5): had an effect on acetylcholine release in the hippocampus, but this effect was not significant
effect on acetylcholine release in the frontal cortex ([3]; 5.6 mg/mL, n=5): Neither pregnenolone (PREG) at dosage 5.6 mg/mL or 11.2 mg/mL had an effect
effect on acetylcholine release in the frontal cortex ([3]; 11.2 mg/mL, n=6): Neither pregnenolone (PREG) at dosage 5.6 mg/mL or 11.2 mg/mL had an effect
extracellular acetylcholine in the amygdala contralateral to the treated nostril [4]: not in the contralateral amygdala
extracellular acetylcholine in the amygdala ipsilateral to the treated nostril [4]: Higher increase in the ipsilateral amygdala of extracellular level of acetylcholine; also recorded: increases acetylcholine in the amygdala ipsilateral to this nostril
